This passage reports IC50 results from PubChem BioAssay AID602132 (Sanford-Burnham Center for Chemical Genomics, 2011).

Molecules are shown by their SMILES. Active and inactive are the calls of the source. How the calls were made is not given here.

The experiment concerns the target glucose-6-phosphate dehydrogenase-6-phosphogluconolactonase [Plasmodium falciparum 3D7]. Put plainly: PfG6PD enzyme inhibitors, orthogonal readout, SAR follow-up, orthogonal assay for PfG6PD antimalarial inhibitor project, biochemical, direct NADPH end-point detection, set 2 (AID 602132). The note with it: recombinant PfG6PD.
The term IC50 denotes the concentration needed to halve the response being measured. On to `CCN1CCCC1CNC(=O)c1ccc2c(c1)NC(=O)/C(=C/c1ccc3ccccc3c1)S2` (stereo unspecified), for which the IC50 is > 80 µM (inactive).
For `CCN1CCCC1CNC(=O)c1ccc2c(c1)NC(=O)/C(=C/c1ccc(F)cc1)S2` (stereo unspecified), the IC50 is > 80 µM (inactive).
Take `O=C(NCCN1CCOCC1)c1ccc2c(c1)NC(=O)c1ccccc1S2`: the IC50 was > 80 µM (inactive).
On to `CCN1CCCC1CNC(=O)c1ccc2c(c1)NC(=O)/C(=C/c1cccc(F)c1)S2` (stereo unspecified), for which the IC50 was > 80 µM (inactive).
For `CCN1CCCC1CNC(=O)c1ccc2c(c1)NC(=O)/C(=C/c1c(F)cccc1F)S2` (stereo unspecified), the IC50 is > 80 µM (inactive).
`NC1CCN(C(=O)c2ccc3c(c2)NC(=O)c2ccccc2S3)C1` (stereo unspecified): the IC50 was > 80 µM (inactive).
Turning to `CN(C)c1ccccc1CNC(=O)c1ccc2c(c1)NC(=O)/C(=C/c1ccccc1F)S2`, the IC50 was > 80 µM (inactive).
Consider `O=C(NCCNC1CCCCC1)c1ccc2c(c1)NC(=O)c1ccccc1S2`, for which the IC50 was > 80 µM (inactive).
Take `CCCN1CCCC1CNC(=O)c1ccc2c(c1)NC(=O)/C(=C/c1ccccc1F)S2` (stereo unspecified): the IC50 is > 80 µM (inactive).
Take `O=C(NCCN1CCCCC1)c1ccc2c(c1)NC(=O)c1ccccc1S2`: the 50% inhibitory concentration (IC50) is 25.4 µM.
Regarding `CCC(C)N1CCCC1CNC(=O)c1ccc2c(c1)NC(=O)c1ccccc1S2` (stereo unspecified), the IC50 is > 80 µM (inactive).
Regarding `CCN(CC)CCCC(C)Nc1ccnc2cc(Cl)ccc12` (stereo unspecified), the IC50 is > 80 µM (inactive).
In the case of `CCN1CCCC1CNC(=O)c1ccc2c(c1)NC(=O)C(Cc1ccccc1F)S2` (stereo unspecified), the IC50 is > 80 µM (inactive).
`CCN1CCCC1CNC(=O)c1ccc2c(c1)NC(=O)/C(=C/c1cccc(F)c1F)S2` (stereo unspecified): the IC50 was > 80 µM (inactive).
As for `O=C1Nc2cc(C(=O)NCC3CCCN3)ccc2S/C1=C\c1ccccc1F` (stereo unspecified), the IC50 was > 80 µM (inactive).
As to `CCN1CCC[C@H]1CNC(=O)c1ccc2c(c1)NC(=O)c1ccccc1S2`, the half-maximal inhibitory concentration (IC50) was 64.8 µM.
Turning to `NC1CCN(C(=O)c2ccc3c(c2)NC(=O)/C(=C/c2ccccc2F)S3)C1` (stereo unspecified), the IC50 was > 80 µM (inactive).
For the molecule `CCC(C)N(CCNC(=O)c1ccc2c(c1)NC(=O)c1ccccc1S2)C1CCCCC1` (stereo unspecified), the IC50 was 25 µM.
Turning to `CCN1CCC[C@@H]1CNC(=O)c1ccc2c(c1)NC(=O)c1ccccc1S2`, the IC50 is 6.69 µM.
As for `NCCNC(=O)c1ccc2c(c1)NC(=O)c1ccccc1S2`, the figure is > 80 µM (inactive); as for `CC(C)(C)OC(=O)N1CCCC1CNC(=O)c1ccc2c(c1)NC(=O)/C(=C/c1ccccc1F)S2` (stereo unspecified), > 80 µM (inactive).
